Here are results for ten molecules from patent US11000485B2, “Substituted hydroxystilbenes as AhR and Nrf2 modulators and their therapeutic applications” (Resolvex Pharmaceuticals Inc., priority 2017, dated 2021).

Experiment [1] relates to Jurkat cells. The experiment is described as follows: Cell viability (MTS). It is filed as cell-based. The note with it: 48 hours. As for the experimental part:
(§1) Cells were cultured in RPMI-1640 containing 10% FBS (Jurkat and THP-1) or DMEM containing 10% FBS (A549 and MDA-MB-435). On Day 1, 1-5×10^4 cells per well in 100 μL of the cell culture medium containing 0.5% FBS were seeded into a 96-well flat bottom plate. On Day 2, the test compounds were added to the culture at different concentrations in triplicates. The controls include triplicates of no compound treatment and cell culture medium without cells. The cells were incubated at 5% CO2, 37° C. for 48 hours. On Day 4, MTS reagent was added to each well and incubated at 37° C. for 4 hours. The absorbance was read at 490 nm. The percentage of inhibition was calculated using the formula: [1-(experiment reading-background reading)/(negative control reading-background reading)]×100.

Experiment [2] deals with MDA-MB-435 cells. Kind of experiment: Cell viability (MTS). It is filed as cell-based. The note with it: 48 hours. On the procedure:
as §1

The next experiment deals with THP1 cells. Kind of experiment: Cell viability (MTS). In kind it is cell-based. The note with it: 48 hours. On the procedure:
as §1

The test system of experiment [3] is Jurkat cells. Kind of experiment: Cell proliferation ([3H]-thymidine). The note with it: 48 hours, read-out: Anti-proliferation IC50, Jurkat. It is filed as cell-based. As for the experimental part: (§2) Cells were cultured in RPMI-1640 containing 10% FBS (Jurkat) or DMEM containing 10% FBS (MDA-MB-435). On Day 1, 1×10^4 cells were seeded into one well of a 96-well white ISOPLATE™ with 0.5% FBS. The cells were cultured at 5% CO2, 37° C. overnight. On Day 2, the diluted test compounds were added into each well in a total volume of 100 μL of cell culture medium. For each cell line were set up three wells containing cells and only diluted DMSO as a negative (vehicle) control, and three wells without cells but containing the same volume and type of cell culture medium as background control. The cells were incubated at 5% CO2, 37° C. for 24 hours. On Day 3, 1 μL of [^3H]-thymidine was added into each well and incubation at 5% CO2, 37° C. was continued for another 24 hours. On Day 4, 30 μL of 50% TCA was added into each well and was incubated at 4° C. for 4 hours. Plates were washed with ddH2O four times and then air dried for 30 minutes followed by the addition of 100 μL of scintillation fluid into each well. The radioactivity was read using MICROBETA TRILUX™. The percentage of inhibition was calculated using the formula [1-(experiment reading-background reading)/(negative control reading-background reading)]×100.

The test system of experiment [4] is MDA-MB-435 cells. The experiment is described as follows: Cell proliferation ([3H]-thymidine). In kind it is cell-based. As to conditions: 48 hours, read-out: Anti-proliferation IC50, MDA-MB-435. As for the experimental part: as §2
The subject of the next experiment is A549 cells. Kind of experiment: Cell viability (MTS). The note with it: 48 hours. It is filed as cell-based. On the procedure:
as §1

The target of experiment [5] is T1, recombinant human PDE4B1 enzyme (Homo sapiens, UniProt Q07343).
T1 construct: host or cells: baculoviral system
T1 sequence (Q07343 whole entry): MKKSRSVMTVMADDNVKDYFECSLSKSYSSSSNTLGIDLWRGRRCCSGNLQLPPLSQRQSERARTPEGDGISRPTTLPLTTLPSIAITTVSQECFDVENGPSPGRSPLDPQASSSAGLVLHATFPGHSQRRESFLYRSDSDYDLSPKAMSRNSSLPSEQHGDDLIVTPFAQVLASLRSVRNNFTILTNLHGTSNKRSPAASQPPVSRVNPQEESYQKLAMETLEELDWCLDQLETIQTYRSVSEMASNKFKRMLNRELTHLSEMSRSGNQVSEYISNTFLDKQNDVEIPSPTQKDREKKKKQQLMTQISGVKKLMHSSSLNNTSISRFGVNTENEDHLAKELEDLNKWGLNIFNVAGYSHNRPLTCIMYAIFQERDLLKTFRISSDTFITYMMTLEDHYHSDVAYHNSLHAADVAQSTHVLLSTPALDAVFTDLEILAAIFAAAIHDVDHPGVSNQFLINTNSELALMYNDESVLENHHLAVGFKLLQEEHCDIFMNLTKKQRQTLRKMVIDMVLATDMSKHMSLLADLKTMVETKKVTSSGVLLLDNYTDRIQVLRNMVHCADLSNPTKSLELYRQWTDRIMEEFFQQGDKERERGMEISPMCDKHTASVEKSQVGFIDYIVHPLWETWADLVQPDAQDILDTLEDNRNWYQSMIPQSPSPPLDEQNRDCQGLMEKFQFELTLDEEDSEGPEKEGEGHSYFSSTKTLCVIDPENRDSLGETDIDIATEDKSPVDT
The experiment is described as follows: PDE4B1 radiometric enzyme assay. In kind it is biochemical. As to conditions: 1 μM cAMP. As for the experimental part: Assays were performed using recombinant human PDE4B1 enzyme expressed in a baculoviral system. […] The reactions were performed at 1 μM of cAMP. The test articles were each tested at 0.2 μM and 20 μM in triplicates.

For `CC(C)c1ccc(/C=C/c2ccccc2)cc1O` [Compound 1], the IC50 stood at 2.16 µM with Jurkat cells [1], 25 µM in the experiment on MDA-MB-435 cells [2] and 2.25 µM in the experiment on THP1 cells.
On to `Oc1cc(/C=C/c2ccccc2)ccc1C1CC1` [Compound 11], for which the IC50 is 1.71 µM in the experiment with Jurkat cells [3] and 4.25 µM with MDA-MB-435 cells [4].
On to `Oc1cc(/C=C/c2ccc(F)cc2)ccc1C1CC1` [Compound 12], for which the IC50 in the experiment with A549 cells turned out to be 32 µM; with Jurkat cells [1], 1.65 µM; in the experiment on MDA-MB-435 cells [2], 1.62 µM; in the experiment with THP1 cells it was 15.4 µM. The results for the “Inhibitory activity on PDE4B1 enzyme” value in experiment [5] (0.2 μM compound) and in experiment [5] (20 μM compound) were “+ (“+” is 15-30% inhibition)” and “+++ (“+++” is greater than 50% inhibition)”, respectively.
In the case of `N#Cc1ccc(/C=C/c2ccc(C3CC3)c(O)c2)c(C#N)c1` [Compound 17], the IC50 with Jurkat cells [1] was found to be 7.98 µM; with MDA-MB-435 cells [2], 1.78 µM; in the experiment with THP1 cells, 2.74 µM; in the experiment with Jurkat cells [3] it was 1.38 µM; with MDA-MB-435 cells [4], 1.66 µM.
For the molecule `N#Cc1ccc(/C=C/c2ccc(C3CC3)c(O)c2)cc1C#N` [Compound 18], the IC50 worked out at 3.28 µM in the experiment on Jurkat cells [1], 1.27 µM with MDA-MB-435 cells [2] and 2.4 µM in the experiment on THP1 cells.
Consider `Oc1cc(/C=C/c2ccc(F)cc2)ccc1C1CCCC1` [Compound 20], for which the “Inhibitory activity on PDE4B1 enzyme” value in experiment [5] (0.2 μM compound) was “+ (“+” is 15-30% inhibition)”; in experiment [5] (20 μM compound), “+++ (“+++” is greater than 50% inhibition)”.
With `Oc1cc(/C=C/c2ccc(F)cc2F)ccc1C1CCCC1` [Compound 21], the IC50 in the experiment with Jurkat cells [1] amounted to 3.73 µM; in the experiment with MDA-MB-435 cells [2], 1.95 µM; in the experiment on THP1 cells, 6.93 µM; in the experiment on Jurkat cells [3] it was 0.69 µM; with MDA-MB-435 cells [4], 1.77 µM.
For the molecule `Oc1cc(/C=C/c2c(F)cccc2F)ccc1C1CCCC1` [Compound 22], the IC50 was 2.96 µM in the experiment on Jurkat cells [1], 1.72 µM in the experiment on MDA-MB-435 cells [2] and 2.46 µM with THP1 cells.
In the case of `Oc1cc(/C=C/c2ccc(F)cc2)ccc1C1CCCCC1` [Compound 24], the IC50 stood at 2.66 µM in the experiment with Jurkat cells [1], 0.39 µM in the experiment with MDA-MB-435 cells [2] and 7.18 µM with THP1 cells.
As for `Oc1cc(/C=C/c2ccc(F)cc2)ccc1C1CCCCCC1` [Compound 27], the “Inhibitory activity on PDE4B1 enzyme” value in experiment [5] (0.2 μM compound) is on record as “+ (“+” is 15-30% inhibition)”; in experiment [5] (20 μM compound), “+++ (“+++” is greater than 50% inhibition)”.
